Results taken from ChEMBL document CHEMBL4765353, “Antitubercular polyhalogenated phenothiazines and phenoselenazine with reduced binding to CNS receptors” (Eur J Med Chem, 2020).
Values after ≈ are worked out from the molar mass of the structure shown.

How the values were obtained:
[1] = tested on: Mycobacterium tuberculosis; assay type: functional; settings: 504 h, time 3 weeks, read-out: MIC100
[2] = tested on: Vero; experiment: Cytotoxicity against African green monkey Vero cells assessed as decrease in cell viability incubated for 72 hrs by resazurin assay; assay type: cell-based; settings: Chlorocebus sabaeus
[3] = tested on: Mycobacterium tuberculosis; experiment: Antitubercular activity against Mycobacterium tuberculosis H37Rv incubated for 4 days by Microplate Alamar Blue Assay; assay type: functional; settings: 96 h, time 4 day
[4] = biological target: 5-hydroxytryptamine receptor 2A (Homo sapiens, UniProt P28223); experiment: Displacement of [3H]-Ketanserin from human 5HT2A receptor expressed in CHO-K1 cells; assay type: ADME, cell-based
[5] = tested on: Mycobacterium tuberculosis H37Rv; experiment: Inhibition of NDH-2 in Mycobacterium tuberculosis H37Rv inverted membrane vesicles over expressing ndh gene assessed as reduction in oxygen consumption at 50 uM by NADH oxygen consumption assay; assay type: cell membranes; settings: Membrane vesicle
[6] = biological target: 5-hydroxytryptamine receptor 7 (Homo sapiens, UniProt P34969); experiment: Displacement of [3H]-5-CT from human 5HT7 receptor expressed in HEK293 cells; assay type: cell-based
[7] = tested on: Mycobacterium tuberculosis; assay type: functional; settings: H37Rv, 240 h, time 10 day
[8] = biological target: D(2) dopamine receptor (Homo sapiens, UniProt P14416); experiment: Displacement of [3H]-Raclopride from human D2 receptor (unknown origin) expressed in HEK293 cell membranes; parameters: species or system Cell membrane
[9] = Inhibition of NDH-2 in Mycobacterium tuberculosis H37Rv inverted membrane vesicles over expressing ndh gene by NADH oxygen consumption assay; assay type: cell membranes, Membrane vesicle
[10] = tested on: Mycolicibacterium smegmatis; experiment: Inhibition of NDH-2 in wild type Mycobacterium smegmatis mc24517 inverted membrane vesicles assessed as reduction in oxygen consumption at 50 uM by NADH oxygen consumption assay; assay type: cell membranes; settings: Membrane vesicle
[11] = biological target: 5-hydroxytryptamine receptor 6 (Homo sapiens, UniProt P50406); experiment: Displacement of [3H]-LSD from human 5HT6 receptor expressed in HEK293 cells; assay type: cell-based
[12] = tested on: Mycobacterium tuberculosis; experiment: Antitubercular activity against Mycobacterium tuberculosis H37Rv incubated for 7 days by Microplate Alamar Blue Assay; assay type: functional; settings: 168 h, time 7 day
[13] = Inhibition of NDH-2 in wild type Mycobacterium smegmatis mc24517 inverted membrane vesicles by NADH oxygen consumption assay; assay type: cell membranes, Mycolicibacterium smegmatis, Membrane vesicle
[14] = tested on: HepG2; experiment: Hepatotoxicity in human HepG2 cells at 50 uM incubated for 48 hrs by MTS assay; assay type: toxicity, cell-based; settings: hepg2, 48 h
[15] = tested on: HepG2; experiment: Hepatotoxicity in human HepG2 cells at 10 uM incubated for 48 hrs by MTS assay; assay type: toxicity, cell-based; settings: hepg2, 48 h
[16] = Metabolic stability in human liver microsomes by LC-MS/MS analysis; assay type: ADME, Microsome

D(2) dopamine receptor, sequence (P14416 whole entry): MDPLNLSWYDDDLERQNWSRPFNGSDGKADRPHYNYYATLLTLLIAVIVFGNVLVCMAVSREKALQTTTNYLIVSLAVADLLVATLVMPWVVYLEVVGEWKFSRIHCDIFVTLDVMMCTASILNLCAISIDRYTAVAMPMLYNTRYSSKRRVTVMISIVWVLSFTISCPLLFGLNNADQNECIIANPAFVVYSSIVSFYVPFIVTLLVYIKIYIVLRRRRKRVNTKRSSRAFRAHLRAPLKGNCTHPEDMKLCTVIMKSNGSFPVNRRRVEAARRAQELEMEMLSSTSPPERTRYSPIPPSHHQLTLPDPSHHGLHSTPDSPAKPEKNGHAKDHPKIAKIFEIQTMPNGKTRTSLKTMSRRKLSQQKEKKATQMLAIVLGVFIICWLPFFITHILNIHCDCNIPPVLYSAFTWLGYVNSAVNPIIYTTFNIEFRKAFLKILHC
5-hydroxytryptamine receptor 7, sequence (P34969 whole entry): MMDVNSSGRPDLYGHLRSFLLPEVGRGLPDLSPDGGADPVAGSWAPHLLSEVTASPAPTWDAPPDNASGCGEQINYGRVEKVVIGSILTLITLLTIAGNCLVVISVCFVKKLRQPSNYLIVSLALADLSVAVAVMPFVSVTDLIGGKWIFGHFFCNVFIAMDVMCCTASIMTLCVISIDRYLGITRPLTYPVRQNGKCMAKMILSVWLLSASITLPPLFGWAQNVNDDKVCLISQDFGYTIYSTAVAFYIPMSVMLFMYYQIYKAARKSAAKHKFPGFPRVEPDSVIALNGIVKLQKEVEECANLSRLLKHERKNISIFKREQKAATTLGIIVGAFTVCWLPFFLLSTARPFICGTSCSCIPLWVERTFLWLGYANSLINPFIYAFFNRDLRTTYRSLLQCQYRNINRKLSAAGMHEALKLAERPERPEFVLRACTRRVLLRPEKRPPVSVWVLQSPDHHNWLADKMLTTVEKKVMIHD
5-hydroxytryptamine receptor 6, sequence (P50406 whole entry): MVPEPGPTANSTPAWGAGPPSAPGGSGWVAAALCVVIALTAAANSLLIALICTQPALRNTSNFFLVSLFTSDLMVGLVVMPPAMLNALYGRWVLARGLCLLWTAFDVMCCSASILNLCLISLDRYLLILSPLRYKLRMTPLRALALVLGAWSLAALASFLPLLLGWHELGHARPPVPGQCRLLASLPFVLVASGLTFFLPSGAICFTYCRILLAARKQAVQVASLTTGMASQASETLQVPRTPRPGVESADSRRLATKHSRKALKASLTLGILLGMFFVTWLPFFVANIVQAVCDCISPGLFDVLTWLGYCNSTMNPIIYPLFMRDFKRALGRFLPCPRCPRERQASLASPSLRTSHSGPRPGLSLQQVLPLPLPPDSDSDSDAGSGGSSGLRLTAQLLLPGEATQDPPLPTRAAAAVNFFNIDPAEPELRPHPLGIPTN
5-hydroxytryptamine receptor 2A, sequence (P28223 whole entry): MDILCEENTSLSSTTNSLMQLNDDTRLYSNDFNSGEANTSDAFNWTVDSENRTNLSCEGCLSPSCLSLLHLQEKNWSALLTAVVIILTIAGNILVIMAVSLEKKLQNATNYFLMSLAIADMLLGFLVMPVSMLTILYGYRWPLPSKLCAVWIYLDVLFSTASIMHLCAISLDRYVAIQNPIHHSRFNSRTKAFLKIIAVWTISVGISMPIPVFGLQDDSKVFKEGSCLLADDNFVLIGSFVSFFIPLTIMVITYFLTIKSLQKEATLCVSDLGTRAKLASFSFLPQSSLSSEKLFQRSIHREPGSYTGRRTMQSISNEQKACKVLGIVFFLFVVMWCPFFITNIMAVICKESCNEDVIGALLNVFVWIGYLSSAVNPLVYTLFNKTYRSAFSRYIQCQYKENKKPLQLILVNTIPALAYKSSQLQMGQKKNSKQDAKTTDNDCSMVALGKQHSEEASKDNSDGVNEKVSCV

With Brc1ccc2c(c1)Sc1cc(Br)ccc1N2CCN1CCOCC1.Cl the MIC [1] was over 100 µg/mL and the IC50 [2] was over 100 µg/mL.

CN1CCCCC1CCN1c2c(Cl)cc(Cl)cc2Sc2cc(Cl)cc(Cl)c21.Cl (stereo not drawn) showed an MIC90 [3] of 3.1 µg/mL, a Ki [4] of 1240 nM and an inhibition [5] of 74.2%. It also gave an MIC [1] of 1.55 µg/mL, a Ki [6] of 1000 nM and an IC50 [2] of 26.9 µg/mL. For the same molecule, the MIC90 [7] was 2.89 µg/mL, the Ki [8] was 639 nM and the IC50 [9] was 4.5 µg/mL. The inhibition [10] was 92.4%, the Ki [11] was 387 nM and the MIC90 [12] was 3.1 µg/mL. For the same molecule, the IC50 [13] was 3.6 µg/mL and the Activity [14] was “Non-Toxic”.

For Brc1ccc2c(c1)Sc1cc(Br)ccc1N2CCN1CCCC1, the MIC [1] was 2.57 µg/mL (≈ 5.66 µM) and the IC50 [2] was 9.42 µg/mL (≈ 20.7 µM).

Brc1ccc2c(c1)Sc1cc(Br)ccc1N2Cc1ccccn1.Cl gave an MIC [1] of over 100 µg/mL and an IC50 [2] of over 100 µg/mL.

Work on Brc1ccc2c(c1)Sc1cc(Br)ccc1N2CCCN1CCCC1.Cl yielded an MIC [1] of 1.45 µg/mL and an IC50 [2] of 17.1 µg/mL.

CC(=O)NC[C@H]1CN(c2ccc(N3CCOCC3)c(F)c2)C(=O)O1 [LINEZOLID] gave an MIC [1] of 0.87 µg/mL (≈ 2.58 µM).

In the case of CN1CCCCC1CCN1c2ccc(Br)cc2Sc2cc(Br)ccc21.Cl (stereo not drawn), the MIC90 [3] is reported as 3.1 µg/mL, the Ki [4] is reported as 1750 nM and the inhibition [5] is reported as 84.8%. For the same molecule, the MIC [1] was 1.5 µg/mL, the Ki [6] was 2150 nM and the Activity [15] was “Toxic”. It also gave an IC50 [2] of 18.3 µg/mL, an MIC90 [7] of 2.96 µg/mL and a Ki [8] of 688 nM. For the same molecule, the IC50 [9] was 11.2 µg/mL, the Stabilty [16] was “Unstable” and the inhibition [10] was 93.7%. The Ki [11] was 758 nM, the MIC90 [12] was 3.1 µg/mL and the IC50 [13] was 4.7 µg/mL.

Work on CO[C@H]1/C=C/O[C@@]2(C)Oc3c(C)c(O)c4c(O)c(c(/C=N/N5CCN(C)CC5)c(O)c4c3C2=O)NC(=O)/C(C)=C\C=C\[C@H](C)[C@H](O)[C@@H](C)[C@@H](O)[C@@H](C)[C@H](OC(C)=O)[C@@H]1C [RIFAMPIN] yielded an MIC90 [3] of 0.06 µg/mL (≈ 0.0729 µM), an MIC [1] of 0.01 µg/mL (≈ 0.0122 µM) and an MIC90 [7] of over 128 µg/mL. The MIC90 [12] was 0.06 µg/mL (≈ 0.0729 µM).

For CN(C)CCCN1c2ccccc2Sc2ccc(Cl)cc21 [CHLORPROMAZINE], the MIC [1] was 4.41 µg/mL (≈ 13.8 µM), the IC50 [2] was 26.5 µg/mL (≈ 83.2 µM) and the MIC90 [7] was 0.08 µg/mL (≈ 0.251 µM).

Work on CN1CCCCC1CCN1c2ccc(Cl)cc2Sc2cc(Cl)cc(Cl)c21.Cl (stereo not drawn) yielded an MIC [1] of 2.67 µg/mL and an IC50 [2] of 19.2 µg/mL.

With CN1CCCCC1CCN1c2ccccc2Sc2cc(Cl)ccc21.Cl (stereo not drawn) the inhibition [5] was 12.5%, the MIC [1] was 5.48 µg/mL and the IC50 [2] was 30.7 µg/mL. The inhibition [10] was 47.5%.

For CN1CCCCC1CCN1c2ccc(Br)cc2[Se]c2cc(Br)ccc21.Cl (stereo not drawn), the Ki [4] was 1760 nM, the MIC [1] was 2.35 µg/mL and the Ki [6] was 2340 nM. The Activity [15] was “Non-Toxic”, the IC50 [2] was 17.6 µg/mL and the Ki [8] was 367 nM. For the same molecule, the Stabilty [16] was “Stable” and the Ki [11] was 222 nM.

With NNC(=O)c1ccncc1 [ISONIAZID] the MIC [1] was 0.25 µg/mL (≈ 1.82 µM) and the MIC90 [7] was 2.46 µg/mL (≈ 17.9 µM).

In the case of CN1CCCCC1CCN1c2ccc(Cl)cc2Sc2cc(Cl)ccc21.Cl (stereo not drawn), the inhibition [5] is reported as 59.3%, the MIC [1] is reported as 2.4 µg/mL and the IC50 [2] is reported as 17.9 µg/mL. It also gave an inhibition [10] of 85.4% and an IC50 [13] of 6.5 µg/mL.

In the case of CN(C)CCCN1c2ccc(Br)cc2Sc2cc(Br)cc(F)c21.Cl, the MIC [1] is reported as 5.7 µg/mL and the IC50 [2] is reported as 34.7 µg/mL.

Molecule CN(C)CCCN1c2ccc(Cl)cc2Sc2cc(Cl)ccc21.Cl has an MIC [1] of 2.51 µg/mL and an IC50 [2] of 16.7 µg/mL.

Molecule Cl.Clc1cc(Cl)c2c(c1)Sc1cc(Cl)cc(Cl)c1N2CCCN1CCOCC1 has an MIC [1] of over 50 µg/mL.

In the case of CSc1ccc2c(c1)N(CCC1CCCCN1C)c1ccccc1S2 (stereo not drawn) [THIORIDAZINE], the MIC [1] is reported as 2.4 µg/mL (≈ 6.48 µM), the Ki [6] is reported as 181 nM and the IC50 [2] is reported as 17.8 µg/mL (≈ 48 µM). The MIC90 [7] was 5.29 µg/mL (≈ 14.3 µM) and the Ki [11] was 71 nM.

Brc1ccc2c(c1)Sc1cc(Br)ccc1N2CCCN1CCOCC1.Cl gave an MIC [1] of 5.52 µg/mL and an IC50 [2] of over 50 µg/mL.

CN1CCCCC1CCN1c2ccc(Br)cc2Sc2cc(Br)cc(F)c21.Cl (stereo not drawn) showed an MIC [1] of 2.65 µg/mL and an IC50 [2] of 17.7 µg/mL.

Cl.Clc1cc(Cl)c2c(c1)Sc1cc(Cl)cc(Cl)c1N2CCCN1CCCC1 showed an MIC [1] of 1.5 µg/mL and an IC50 [2] of 18 µg/mL.

N=c1sc(-c2ccc(F)cc2)nn1CC(=O)N1c2ccc(Br)cc2Sc2cc(Br)ccc21 gave an MIC [1] of over 50 µg/mL.

CN(C)CCCN1c2ccccc2Sc2cc(Cl)ccc21.Cl showed an MIC [1] of 6.59 µg/mL and an IC50 [2] of 35.8 µg/mL.

CN(C)CCCN1c2ccc(Br)cc2Sc2cc(Br)ccc21.Cl showed an inhibition [5] of 40.7%, an MIC [1] of 2.38 µg/mL and an IC50 [2] of 27 µg/mL. For the same molecule, the inhibition [10] was 69.4%.

CCCCCCCc1cc(O)c2ccccc2[n+]1[O-] showed an inhibition [5] of 29.2% and an inhibition [10] of 18.1%.

CN(C)CCCN1c2ccc(Cl)cc2Sc2cc(Cl)cc(Cl)c21.Cl showed an MIC [1] of 4.46 µg/mL and an IC50 [2] of 16.8 µg/mL.
